These results are taken from patent US20090036355A1, “Antisense Modulation of PTP1B Expression” (priority 2004, published 2009).

Like-named read-outs stand apart in the source and are kept apart here.

The test system of data set [1] is ZDF rats. Description: ZDF rats: comparison to rosiglitazone and metformin (glucose, HbA1c, meal tolerance, body weight). The class given is in vivo, rat. The protocol: A saline treated group of lean rats was also included in the study. Treatment with all drugs was initiated before the rats became frankly diabetic, which occurs at about 8 weeks of age. Plasma glucose levels were measured 3 and 5 weeks after treatment initiation. Body weight was measured once every week; in addition, HbA, levels were measured at the end of the study by HPLC. A meal tolerance test was also performed after 4 weeks of treatment.
At the end of 5 weeks, some rats were sacrificed and the liver and epididymal fat pads were removed. The rest of the animals (n=4/group) were examined for changes in plasma glucose levels after cessation of treatment. Glucose measurements during the recovery phase were made 10 days and 5 weeks after stopping treatment. Tissue extracts were subjected to Western blot analysis to measure changes in PTP1B protein levels.

For data set [2], the system named is ZDF rats. Description: Combination with metformin in ZDF rats: plasma glucose. Format: in vivo, rat. The note with it: 4 weeks, metformin 100, 300 or 500 mg/kg per day, ISIS 113715 12.5 mg/kg twice a week.
Procedure: 500 mg/kg is the maximally effective dose that can be tolerated by these rats. Plasma glucose was measured at week 0 (before treatment) and after weeks 1, 2 and 4 of treatment.
The nature of data set [3]: Combination with metformin in ZDF rats: hypoglycemia, AST/ALT, lipids, plasma lactate. Format: in vivo, rat. The settings on record: after 4 weeks of treatment, metformin 100, 300 or 500 mg/kg per day, ISIS 113715 12.5 mg/kg twice a week. The protocol: 500 mg/kg is the maximally effective dose that can be tolerated by these rats.
There was no significant change in AST/ALT, plasma triglyceride or plasma cholesterol levels in any animal group. Because of the risk of lactic acidosis associated with metformin treatment, plasma lactate levels were measured.

The nature of data set [4]: AST/ALT and plasma cholesterol in aged ZDF rats. The note with it: weeks 1, 2, 3, 4 and 5.
The test system of data set [5] is ZDF rats. Briefly: Fed plasma glucose in Zucker diabetic fatty (ZDF) rats. Format: in vivo, rat. The text has this: The leptin receptor deficient Zucker diabetic fatty (ZDF) rat is another useful model for the investigation of type 2 diabetes. Diabetes develops spontaneously in these male rats at ages 8-10 weeks, and is associated with hyperphagia, polyuria, polydipsia, and impaired weight gain, symptoms which parallel the clinical symptoms of diabetes (Phillips M S, et al., 1996, Nat Genet. 13, 18-19).
(§1) ZDF/GmiCrl-fa/fa (ZDF) male rats were purchased from Charles River Laboratories (Wilmington, Mass., USA). Six week old ZDF male rats were injected intraperitoneally with oligonucleotides at a dose of 25 mg/kg two times per week for four weeks. […] Saline-injected animals also serve as controls.

For data set [6], the system named is ZDF rats. Briefly: Intraperitoneal glucose tolerance test (IPGTT) in ZDF rats. Format: in vivo, rat. On the procedure:
as §1
An intraperitoneal glucose tolerance test (IPGTT) was also performed. Rats received intraperitoneal injections of glucose, and the blood glucose and insulin levels are measured before the glucose challenge and at intervals over 2 hours. The blood glucose levels (in mg/dL) are shown below in Table 1: […]

Data set [7] concerns PTP1B protein. Description: PTP1B protein levels in ZDF rats (Western blot). The class given is in vivo, rat. The note with it: compared to saline-treated animals. The protocol: as §1
PTP1B protein levels were measured by Western blot analysis.
(A western blot detects proteins with antibodies after separation by electrophoresis.)

In data set [8] the test system is PTP1B. Description: PTP1B protein in HEPG2 cells (Western blot). Format: cell-based, human. The settings on record: 150 nM. The protocol:
(§2) There is a high degree of homology between PTP1B and T-cell phosphatase (TC-PTPase, PTPN2), particularly in the catalytic domain. This may present problems in design of small molecule drugs specific for PTP1B. […] HEPG2 human hepatocellular liver carcinoma cells (ATCC, Manassas Va.) are routinely maintained in minimum essential medium (Eagle) with 2 mM L-glutamine and Earle's BSS adjusted to contain 1.5 g/L sodium bicarbonate, 0.1 mM non-essential amino acids, and 1.0 mM sodium pyruvate, […]; fetal bovine serum.
(§3) Levels of PTP1B and TC-PTPase protein were measured by Western blot using mouse monoclonal antibodies to PTP1B (AB-1) and TC-PTPase (AB-1) (CalBiochem/Oncogene sciences, EMD Biosciences, Inc., San Diego Calif.), which specifically identified human target proteins and were used at 0.25 ug/ml. Results were expressed as percent of control (no oligo treatment).

Data set [9] has as its system T-cell phosphatase (TC-PTPase, PTPN2). Description: TC-PTPase protein in HEPG2 cells (Western blot). Format: cell-based, human. The settings on record: 150 nM. On the procedure:
as §2, §3

For data set [10] the following is noted: rat, in vivo.

In the case of `CN(C)C(=N)N=C(N)N` [Metformin], the “Blood glucose (mg/dL) (approx.)” value in data set [1] (31 day washout, saline 320) was roughly 330 mg/dL; in [1] (Week 3 of dosing, saline 320), roughly 180 mg/dL. Further, the body weight entry in data set [1] (after treatment) is listed as “remained unchanged”. Moreover, the “effect on blood glucose over time” value in data set [2] was “lost over time”. Further, the plasma lactate levels entry in data set [3] was “dose-dependent increase”.

Regarding `CN(CCOc1ccc(CC2SC(=O)NC2=O)cc1)c1ccccn1` (stereo not drawn) [Rosiglitazone], the “Blood glucose (mg/dL) (approx.)” value in data set [1] (10 day washout, saline 310) was roughly 260 mg/dL; in [1] (31 day washout, saline 320) it was roughly 270 mg/dL; in data set [1] (Pre-treatment, ISIS 113715 50 mg/kg/week IP, rosiglitazone 10 mg/kg/day, metformin 800 mg/kg/day orally, saline 140), roughly 140 mg/dL; in data set [1] (Week 3 of dosing, saline 320) it was roughly 110 mg/dL. The “AST/ALT and plasma cholesterol levels” value in [4] was “no significant effects”.

In the case of “ISIS 141923: CCTTCCCTGAAGGTTCCTCC; SEQ ID NO: 20, six-mismatch control of ISIS 113715, negative oligonucleotide control (chemistry not given here)”, the “fed plasma glucose levels” value in [5] (25 mg/kg i.p. two times per week, week 0, saline 302±44) is “approximately 306±59 mg/dL”; in [5] (week 1, saline 400±17), roughly 391 ± 35 mg/dL; in data set [5] (week 2, saline 441±13) it was roughly 402 ± 37 mg/dL; in data set [5] (week 3, saline 453±26), roughly 411 ± 27 mg/dL; in data set [5] (week 4, saline 425±10) it was roughly 392 ± 11 mg/dL. Further, the “Blood glucose after IPGTT, Glucose mg/dL ± SEM” value in [6] (0 min) amounted to 330 ± 39 mg/dL; in data set [6] (5 min), 543 ± 43 mg/dL; in [6] (15 min), 703 ± 60 mg/dL; in [6] (30 min) it was 791 ± 52 mg/dL; in [6] (60 min), 705 ± 51 mg/dL; in data set [6] (120 min) it was 594 ± 28 mg/dL. For the same compound, the “Insulin excursion after IPGTT, Insulin (ng/ml ± SEM)” value in data set [6] (0 min) was 2.2 ± .30 ng/mL; in data set [6] (5 min), 2.3 ± .84 ng/mL; in data set [6] (15 min) it was 4.0 ± .22 ng/mL; in data set [6] (30 min), 4.2 ± .37 ng/mL; in data set [6] (60 min), 2.4 ± .66 ng/mL; in data set [6] (120 min), 1.7 ± .60 ng/mL. Also, the “Insulin AUC after IPGTT” value in data set [6] (saline approximately 300) is roughly 320. Moreover, the “Glucose excursion (AUC) after IPGTT” value in data set [6] (saline approximately 72,000) was “approximately 80,000”. Besides, in data set [7], the “PTP1B protein levels decreased by” value was 10%. The “PTP1B protein levels reduced by” value in [8] is reported as “reduced neither”. In addition, the “TC-PTPase levels reduced by” value in [9] is recorded as “reduced neither”. Further, the “AST/ALT and plasma cholesterol levels” value in data set [10] was “no significant effects”.
